Laboratory results from patent publication US7601852B2, “Macrocyclic kinase inhibitors” (Kosan Biosciences Incorporated, priority 2006, dated 2009).
Where two headings read alike, the source gives them in different places.

Tests used:
[1] = tested on: COLO829 (B-Raf V600E) human melanoma cancer cell line; assay: Inhibitory concentration against COLO829 cancer cell line; assay type: cell-based
Description: (§1) The biological activity of compounds III and IV is compared against that of the natural product hypothemycin in Table A. Inhibitory concentrations against three cancer cell lines is provided. COLO829 B is a human melanoma cancer cell line having a B-Raf V600E mutation. HT29 is a human colon cancer cell line also having a B-Raf V600E mutation. SKOV3 is a human […] cancer cell line having wild-type B-Raf. Additionally, Ki and Kinact for ERK2 are provided.

[2] = tested on: HT29 (B-Raf V600E) human colon cancer cell line; assay: Inhibitory concentration against HT29 cancer cell line; assay type: cell-based
Description: as §1

[3] = tested on: SKOV3 (wild-type B-Raf) human breast cancer cell line; assay: Inhibitory concentration against SKOV3 cancer cell line; assay type: cell-based
Description: as §1

ERK2 = ERK2 (Homo sapiens, UniProt P28482); assay: ERK2 Binding; conditions: for kinact: read-out: ERK2 Binding Kinact
Description: as §1

panel of 124 kinases = conditions: cited from earlier work
[4] = COLO-829, COLO829 human melanoma cell line, B-Raf V600E, read-out: Inhibitory Concentration (IC50) COLO829 (B-Raf V600E)
[5] = HT-29, HT29 human colon cancer cell line, B-Raf V600E, read-out: Inhibitory Concentration (IC50) HT29 (B-Raf V600E)
[6] = SK-OV-3, SKOV3 cell line, wild-type B-Raf, read-out: Inhibitory Concentration (IC50) SKOV3 (wild-type B-Raf)

ERK2, sequence (P28482 whole entry, species assumed): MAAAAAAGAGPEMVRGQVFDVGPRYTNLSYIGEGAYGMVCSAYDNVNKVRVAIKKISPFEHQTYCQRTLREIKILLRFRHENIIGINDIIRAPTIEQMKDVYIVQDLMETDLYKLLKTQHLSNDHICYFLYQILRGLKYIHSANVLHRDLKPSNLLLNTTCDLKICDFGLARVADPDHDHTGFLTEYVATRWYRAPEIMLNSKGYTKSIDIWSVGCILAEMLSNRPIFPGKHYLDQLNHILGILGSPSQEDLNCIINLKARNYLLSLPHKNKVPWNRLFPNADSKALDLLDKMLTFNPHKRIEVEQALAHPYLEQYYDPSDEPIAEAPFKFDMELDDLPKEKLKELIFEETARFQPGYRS

SMILES	IC50 [1, 4]	IC50 [2, 5]	IC50 [3, 6]	Ki (ERK2; read-out: ERK2 Binding Ki)	kinact (ERK2)	IC50 ([1]; Homo sapiens, COLO-829, read-out: Inhibitory Concentration (IC50) COLO829 (B-Raf V600E))	IC50 ([2]; Homo sapiens, HT-29, read-out: Inhibitory Concentration (IC50) HT29 (B-Raf V600E))	IC50 ([3]; SK-OV-3, read-out: Inhibitory Concentration (IC50) SKOV3 (wild-type B-Raf))	Ki (ERK2)	number of kinases without active site cysteine inhibited (panel of 124 kinases; of 105 kinases not having the active site cysteine)	number of active site cysteine kinases inhibited (panel of 124 kinases; of the 19 kinases having the active site cysteine)	number of kinases inhibited (panel of 124 kinases; of the whole panel of 124 kinases)
C[C@H]1C/C=C\C(=O)[C@@H](O)[C@@H](O)COCc2cc(O)cc(O)c2C(=O)O1 [Compound III]	360 nM	860 nM	74000 nM	3100 ± 400 nM	9.1e-05 s⁻¹	–	–	–	–	–	–	–
COc1cc(O)c2c(c1)[C@H]1O[C@@H]1C[C@H](O)[C@H](O)C(=O)/C=C\C[C@H](C)OC2=O [Hypothemycin, hypothemycin]	–	–	–	–	0.005 ± 2e-06 s⁻¹	46 nM	260 nM	4000 nM	2700 ± 800 nM	2	18	20
C[C@@H]1/C=C\C(=O)[C@@H](O)[C@@H](O)COCc2cc(O)cc(O)c2C(=O)O[C@H]1C [IV]	310 nM	1420 nM	> 100000 nM	–	–	–	–	–	–	–	–	–
